Assay results from publication PMC8298375 (Naunyn-Schmiedeberg's Archives of Pharmacology, 2021).
Structures can show the parent of a compound that is named as a salt.

Columns and labels:
[1] = In vitro release studies, release kinetics and mechanism (dialysis sac); format: physicochemical; conditions: PBS pH 7.4, dialysis sac
Procedure: In vitro release studies were performed using dialysis sac (Sigma membrane, MW cut-off 13 kDa) method. Two milligram equivalent of rivastigmine-loaded nanoparticles were weighed and suspended in 2 mL of phosphate buffer saline (pH 7.4). Samples were withdrawn at predetermined time intervals and analyzed by HPLC method. In order to maintain sink conditions, an equal volume of PBS was replaced. The whole experiment was performed at […]. Based on the cumulative drug release vs. time profiles, the release kinetics models and mechanism were proposed (Akbuǧa and Bergişadi [1997]).

AChE = format: in vivo, rat; conditions: scopolamine model, listed as pure drug
Procedure: Samples were then centrifuged at 10,000 rpm for 5 min, and plasma was stored at − 70 °C until analysis.
Thiocholine, which was produced due to the hydrolysis of acetylthiocholine (ACTI) by AChE, was estimated by making it react with 5, 5′-dithiobis-(2-nitrobenzoic acid) (DTNB). The chemical, 5-thio-2-nitrobenzoic acid (yellow color complex), which was released due to reaction was estimated using a UV spectrophotometer in the range of 400 to 420 nm with maximal absorption at 412 nm. One hundred microliter of blank rat plasma was taken in the polypropylene vials. To this, 2.8 mL of phosphate buffer (0.01 M, pH 8) and 100 µL of DTNB reagents were added and mixed well. Then, 20 µL of ACTI (26.01 mg/mL of Milli-Q water) was added to the contents of the cuvette to initiate the enzyme reaction. The reaction kinetics was monitored at different time intervals (0, 1, 2, 3, 4 min), and absorbance was noted. 2.8 mL buffer (0.01 M, pH 8.0) and 100 µL DTNB reagent served as blank. Concentrations in the range of 0.03–30 mM were prepared using methanol as a diluent. […] Substrate concentration and reaction time were optimized such that sufficient concentration of ACTI is available to bind with the enzyme to initiate the reaction and also it should not saturate the enzyme. In this study, varying concentrations (100–1000 µM) of ACTI were prepared, and reaction kinetics were observed. In general, the maximum time should be either 2–4 min or even less, because the enzyme might undergo degradation. In the present study, up to 4 min of reaction kinetics (changing the optical density or absorbance) was measured. One unit of AChE activity is defined as the number of µmol of acetylthiocholine iodide hydrolyzed per minute. The specific activity of AChE is expressed in moles/min/mg of protein (Kaur et al. [2015]): AChEActivity=(abs.permin×1000×volumeofenzyme)/(13600×TRM)AChEActivity=abovevalue×1000(nanomolar/min/mL)
where 13,600 = molar extinction coefficient of DTNB: 1000-molar conversion factor: (TRM) total reaction mixture 3 mL: volume of enzyme (0.1 mL).

[2] = set-up: method as in Jann [2000]; conditions: ref Jann [2000]; cited from earlier work
[3] = set-up: method as in Jann [2000]; conditions: ref Jann [2000], cited from earlier work
cholinesterase enzyme = system: cholinesterase enzyme; set-up: method as in Emerich and Walsh [1990]; conditions: 2.5 mg/kg via the oral route; ref Emerich and Walsh [1990]; cited from earlier work
[4] = set-up: method as in Arumugam [2009]; conditions: male vs female rats; ref Arumugam [2009]; cited from earlier work

For `CCN(C)C(=O)Oc1cccc([C@H](C)N(C)C)c1` [Rivastigmine, Rivastigmine hydrogen tartrate], the “drug released within 2 h” value [1] is listed as 85%, the “peak AChE inhibition (Emax, maximum inhibition) in plasma” value (AChE) is listed as 71.95% and the “log P predicted” value [2] is listed as 2.45. For the same compound, the bioavailability ([3]; oral) was 36–40%, the plasma elimination half-life [3] was 1.5 h and the “inhibition of the cholinesterase enzyme in the cortex and hippocampus” value (cholinesterase enzyme) was 20–30%. For the same compound, the “elimination rate constant, male rats versus female rats” value [4] was 2.5 fold.
